# In ChEMBL document CHEMBL3639075, “Aryl-benzocycloalkyl amide derivatives” (2013):
# Key:
# B1 bradykinin receptor [1] = biological target: T1, B1 bradykinin receptor (Homo sapiens, UniProt P46663); experiment: Calcium Mobilization Assay: Calcium mobilization assay using Bradykinin-1 receptor.; format: functional
# T1 sequence (P46663 whole entry): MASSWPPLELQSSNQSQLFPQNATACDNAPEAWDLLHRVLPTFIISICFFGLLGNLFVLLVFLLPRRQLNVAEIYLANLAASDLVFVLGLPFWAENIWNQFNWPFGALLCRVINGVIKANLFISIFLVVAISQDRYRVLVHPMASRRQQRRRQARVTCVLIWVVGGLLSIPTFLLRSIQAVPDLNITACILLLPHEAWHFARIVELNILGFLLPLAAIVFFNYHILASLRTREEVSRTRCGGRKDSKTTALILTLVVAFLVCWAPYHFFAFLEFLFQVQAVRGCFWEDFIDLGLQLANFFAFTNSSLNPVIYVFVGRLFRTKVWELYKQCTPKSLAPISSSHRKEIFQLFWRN
# B1 bradykinin receptor [2] = biological target: T1, B1 bradykinin receptor; experiment: Binding Assay: Binding assay using Bradykinin-1 receptor.
smiles,measurement,setting,value
Cc1nc(-c2c(F)cc(Cl)cc2-c2ccc3c(c2)CC[C@@H]3NC(=O)C2(NC(=O)c3nnc(C)o3)CC2)no1,IC50,B1 bradykinin receptor [1],3.4 nM
same,Ki,B1 bradykinin receptor [2],9.5 nM
